According to patent EP2163246A1, “Taurine or taurine-like substances for the prevention of the irreversible visual effects of vigabatrin” (INSERM (Institut National de la Santé et de la Recherche …, priority 2008, dated 2010):
Entries after “also recorded” stand apart in the source; their conditions may differ. Like-named read-outs stand apart in the source and are kept apart here.

Legend:
[1] = rats, VGB 65 days, versus control
Description: VGB was dissolved in 0.9 % NaCl at a concentration of 125 mg/ml. It was administered at 40 mg (125 mg/ml, 0.32 ml) by daily intraperitoneal injection for 45 or 65 days and at 3 mg (60 mg/ml, 0.05 ml) to mice for 29 days (daily dose of about 200 mg/kg in rats and 150 mg/kg in mice). Vitamin B6 (active form) was administered at a dose of 1 mM/kg (solution 154,46 mg/ml) whereas taurine was provided in the drinking water at 0,1 mol/l.
After 65 days of injection, rats were anesthetized for blood sampling. Anesthesia was induced as described above. Under anesthesia an indwelling catheter was placed in the carotid artery. This method allowed obtaining a single, large, good quality blood sample. A 1 mL blood sampling was taken for each rat in a heparinized blood sampler, immediately centrifuged and frozen at -80°C. Automated amino acid ion chromatography (Pasteur Cerba, France) was used for the quantitative determination of total and free amino acids in the samples.
VGB dissolved in 0.9% NaCl was administered at 40mg (125 mg/ml, 0.32ml) to rats by daily intraperitoneal injection for 45 or 65 days and at 3mg (60mg/ml, 0.05ml) to mice for 29 days. […] Taurine supplementation was given in drinking water at a concentration of 0.1M.

[2] = test system: cone photoreceptors; test: Retinal histology quantification in VGB-treated rats (cone arrestin, GFAP); assay type: in vivo, Wistar rats Rj Wi IOPS Han
Description: (§1) Sabril IS Investigator and Peer Review Groups. Epilepsia Vol. 37, 638-642 (1996)). […] The primary antibody added to the solution was incubated for two hours at room temperature. Polyclonal antibodies were directed against VGluT1 (1:2000, Chemicon), rabbit GFAP (1/400, Dako, USA) and mouse cone arrestin (Zhu, X., et al. Mouse cone arrestin expression pattern: light induced translocation in cone photoreceptors. Molecular vision Vol. 8, 462-471 (2002)) (Luminaire junior, LUMIj, 1:20,000). Monoclonal antibodies were directed against Goα (1:2000, Chemicon). […] Inner/outer segments of cone photoreceptors were stained with a peanut lectin (PNA, Sigma) during 12 hours of incubation at 4°C. The dye, diamidiphenyl-indole (DAPI), was added during the final incubation period. […] Following DAPI nuclear staining, the lengths of disorganised retinal areas were measured; GFAP immunostaining was used for detection and quantificationof retinal areas with reactive gliosis. The cone photoreceptor density was calculated following cone arrestin immunostaining (rats) or PNA labelling (mice) to visualise the inner/outer segments of cone photoreceptors; areas with disorganised retinal layering were excluded. Areas with sprouting bipolar cells were quantified following immunolabelling of these cells with the antibody directed against the protein Goα.

[3] = test system: cone photoreceptors; test: Retinal histology quantification in VGB-treated mice (DAPI, PNA, Goα); assay type: in vivo, BALB/c mice
Description: as §1

[4] = test system: retinal ganglion cells; conditions: young rats, VGB 0.6 mg/day i.p. 25 days, versus control
Description: Animal treatments: Breeds of Wistar rats Rj Wi IOPS Han were purchased from Janvier (Le Genest-St-lsle, France). VGB dissolved in 0.9% NaCl was administered at 0.6mg/jour (6 mg/ml, 0.1ml) to rats by daily intraperitoneal injection for 25 days from age 4 days.
Histology: Animals were anesthetized by intraperitoneal injection (0.8 to 1.2 ml/kg) of a solution containing ketamine (40 mg/ml) and xylazine (4 mg/ml Rompum). They were then perfused first with heaparin 1000Ul/ml in saline solution (0.9% NaCl), then with fixative containing 4% Paraformaldehyde (Merck chemicals ref. : 100496 ) and 0.2% glutaraldehyde (fluka 25%). Eye cups were isolated and fixed overnight at 4°C in 4% (wt/vol) paraformaldehyde in phosphate buffered saline (PBS; 0.01 M, pH 7.4). The tissue was cryoprotected in successive solutions of PBS containing 10%, 20% and 30% sucrose at 4°C, oriented along the dorso-ventral axis and embedded in OCT (Labonord, Villeneuve d'Ascq, France). […]
For quantification, vertical sections along the dorso-ventral axis were selected at the optic nerve. Brn3A -positive retinal ganglion cells were quantified along the complete retinal section. […]

[5] = test system: GABA; conditions: rats (Neal MJ. et al. 1989; Cubells JF. et al. 1987); cited from earlier work
[6] = test system: retina; parameters: species or system Wistar rats Rj Wi IOPS Han; conditions: rat, in vivo
Description: (§2) ERG were recorded as described previously after the last VGB injection (Duboc et al., 2004). Anesthesia was induced by an intramuscular injection of a solution containing ketamine (100 mg/kg) and xylazine (10 mg/kg). After 10 min adaptation to a […] light intensity, ten recordings were obtained with flash intensity of 10 cdsm^-2 at an interstimulus interval 30s and subsequently averaged. These photopic ERG measurements were performed after 59 days in rats and 29 days in mice.
(§3) Sabril IS Investigator and Peer Review Groups. Epilepsia Vol. 37, 638-642 (1996)).
(§4) Animals were light-adapted for 10 minutes with a background light of 25 cdm^-2. Light flashes were then applied on this background light; the light intensity of the flash was 10 cdsm^-2 for the mouse experiments and for the rats maintained in darkness (Figs. 2, 6) or 25 cdsm^-2 for other experiments (Figs 3, 5). Ten recordings were averaged with an interstimulus interval of 30s.

[7] = rats (Sills GJ. et al. 2001); cited from earlier work
[8] = test system: retina; test: Photopic electroretinogram (ERG) in VGB-treated mice; assay type: in vivo, BALB/c mice
Description: as §2, §3, §4

[9] = VGB plus taurine versus VGB alone, p<0.001

C=CC(N)CCC(=O)O (stereo not drawn) [VGB, 4-amino-5-hexenoic acid]
decrease of taurine level in vigabatrin-treated animals ([1]; p<0.05): 67%
difference (reduction) for methionine ([1]; significant): 22%
reduction of glutamic acid in the blood sample ([1]; statistically significant): 56%
GFAP immunostaining ([2]; VGB alone): increase in GFAP immunostaining
sprouting of bipolar cell dendrites ([3]; VGB alone): observed in VGB-treated mice
density of cone outer and inner segments ([3]; VGB alone versus control, p<0.001 (Fig. 4C)): lower densities
decrease of the number of retinal ganglion cells [4]: 56%
GABA concentrations in the brain relative to control rats [5]: two-fold higher
GABA concentrations in the retina relative to control rats [5]: five-fold higher
photopic ERG amplitude [6]: induced a decrease in the photopic electroretinogram (ERG) measurement
concentration in the retina relative to the brain [7]: five-fold higher

NCCS(=O)(=O)O [taurine, 2-aminoethanesulfonic acid]
GFAP immunostaining [2, 9]: less extensive in animals receiving taurine supplementation than in animals without supplementation
cone segment density ([2]; VGB plus taurine versus VGB alone, p<0.05, remained lower than control): greater in the VGB-treated group with taurine supplementation than in animals without supplementation
sprouting of bipolar cell dendrites ([3]; VGB plus taurine): completely suppressed
cone density [3, 9]: prevented this decrease in cone density
disorganisation of the outer nuclear layer (areas of retinal disorganisation) ([3]; VGB plus taurine versus VGB alone, p<0.001 (Fig. 4B)): smaller areas of retinal disorganisation than mice without supplementation
photopic ERG amplitude ([8]; mouse, in vivo): the difference was no longer statistically significant between controls and vigabatrin plus taurine supplementation

Cc1ncc(COP(=O)(O)O)c(C=O)c1O [vitamin B6, pyridoxal-5'-phosphate]
photopic ERG amplitude ([8]; mice, VGB plus vitamin B6 (active form) 1 mM/kg (Fig. 1B)): smaller decrease in photopic ERG than with vigabatrin alone; also recorded: reduced the decrease in photopic ERG amplitude
